Assay results: patent EP0324574B1, “Immunomodulating bryostatins” (priority 1988, dated 1989)

Tests used:
[1] = test system: CTL (clone BM10-37); assay: BLT-Esterase secretion assay in CTL clone; type: cell-based, murine
Procedure: (§1) This assay was performed as described in Takayama, H., et al. 1987. Antigen receptor triggered secretion of a trypsin-type esterase from cytotoxic T-lymphocytes. J. Immunol. 138:566. Briefly, effector cells were resuspended in the incubation media and incubated in triplicate in a 96-well plate (Immulon) at a concentration of 10⁵ cells per 100 µl. Phorbol myristate acetate ("PMA"), bryostatin 1 and bryostatin 2 were added at a final concentration of 10 ng/ml, the Ca⁺⁺ ionophore A23187 (free acid, Sigma C7522) was added at a final concentration of 0.5 µ g/ml. Total volume per well was adjusted to 200 µl. After 4 hours of incubation (37°C, 5% CO₂) the plates were spun (1 min., 200 xG) and 50 µl of the supernatant was harvested. Total BLT-E content was determined by solubilizing 10⁵ effector cells with 0.1% Triton X-100 in PBS.
Using a newly developed BLT-esterase secretion assay (See: Takayama, H., et al, supra). the ability of bryostatins 1 and 2 to activate cytolytic T-cells and to trigger the exocytosis of granules from CTL was tested. […] The combination of bryostatin and Ca⁺⁺-ionophore, however, greatly enhances the activation of CTL and induces significant secretion of granule located enzyme. […] However, when equimolar concentrations of PMA and bryostatin are used, the amount of secreted BLT-Esterase was similar in both combinations.
10⁵ CTL (clone BM10-37) was incubated in a 96-well plate and stimulated by the addition of a PMA (10ng/ml) and A23187 (0.5 µg/ml). Specific BLT-E secretion was measured as described above.

[2] = test system: HL-60 cell line; settings: cited from earlier work
[3] = test system: in vivo primed spleen cells; assay: generation of cytotoxicity in in vivo primed spleen cells (3-day culture, 51Cr-release assay); type: cell-based, B10 mice; settings: for development of CTL: 0.78nM present during incubation with 2 U/ml of rIL-2; for Index of Cell Recovery after incubation / Lytic Units Per 10⁷ cells: Media + rIL-2 (2U/ml) + 0.5 ng/ml PK-C activator, 3 days of incubation; for Lytic Units Per 10⁷ cells: P815 target cells
Procedure: (§2) Effector cells and ⁵¹Cr-labeled target cells were mixed and incubated in triplicate in a 96-well plate at different E/T ratios as described in Grabstein, K. 1980. Cell-mediated cytolytic responses. In Selected Methods in Cellular Immunology, B. B. Mishel and S. M. Shiigi, eds. (San Francisco, Freeman), pp. 124. The target cell number was 10⁴ cells per well when ⁵¹Cr-release assay was performed with the cytolytic T-cell clones. 5x10³ target cells per well were used when spleen cells and lymph node T-cells were studied as effectors. PMA, bryostatin 1 and bryostatin 2 were added at a final concentration ranging from 0.5 ng/ml to 100 ng/ml. Lectin- dependent cytotoxicity assay was performed by adding 10 µg/ml Con A to the mixture of CTL and ⁵¹Cr-labeled target cells. After incubation, the 96-well plate was centrifuged (1 min, 800 rpm, 4|C), all supernatants were harvested, radioactivity in the samples was counted and the mean values for each triplicate were determined. Percent of specific ⁵¹Cr release was calculated as 100X (a-b)/(t-b), where a is ⁵¹Cr release in the presence of CTL, b is spontaneous release from labeled target cells in the absence of CTL and t is the total number of cpm in the target cells.
B10 mice were immunized in vivo with 5-7.5x10⁶ irradiated P815 (H-2^d) cells. After 2-3 weeks animals were sacrificed and spleen cells were harvested. Red blood cells were lysed with hypotonic salt solution. Cells were incubated with 100 µl of 1/10 diluted M5/114.15.2 mAb containing ascites per 50x10⁶ cells. Following 30 min at room temperature, cells were washed and 100 µl of MAR 18.5 containing cell supernatant and 100 µl of rabbit complement per 50x10⁶ cells were added. Incubation at 37°C was allowed to proceed for 45 min., dead cells were removed by Hypaque-Ficoll centrifugation, washed and then incubated for three days in RPMI media/10% FCS with or without addition of IL-2, PMA or bryostatin as specified in legends of the drawing. Cytotoxicity against Ag-bearing target cells was measured in a ⁵¹Cr-release assay using P815 mastocytoma cells as targets.
In vivo primed B10 spleen cells were prepared as described above. After a 3-day culture either in the presence of either rIL-2 or rIL-2 plus protein kinase C activator, cytotoxicity was measured in a ⁵¹Cr release assay at the E/T ratios shown in FIG. 2 using 10⁴ P815 target cells/well. Results of cytotoxicity assay are shown for (A) cells cultured with rIL-2 alone (0 U/ml, 2 U/ml, 10 U/ml, 20 U/ml); (B) cells cultured with rIL-2 plus 0.5 ng/ml bryostatin 1; (C) cells cultured with rIL-2 plus 0.5 ng/ml bryostatin 2; and (D) cells cultured with rIL-2 plus 0.5 ng/ml PMA. […]

[4] = test system: murine P388 lymphocyte leukemia (PS) system; settings: 10-70 µg/kg injection dose levels; cited from earlier work
[5] = test system: small resting T-cells; assay: development of cytotoxicity in small resting T-cells (lectin mediated 51Cr-release assay); type: cell-based, BALB/c mice
Procedure: as §2
(§3) Mesenteric lymph nodes were harvested from virus-free BALB/c mice 8-12 weeks of age. After two nylon wool column passages, Ia positive cells were subsequently lysed with the anti-Ia monoclonal antibody M5/114 plus Low-Tox-M rabbit complement as described above. Small dense resting T-cells were then separated by a modified discontinuous Percoll gradient procedure (See: Defranco, et al. 1982. Frequency of B-lymphocytes responsive to antiimmunoglobulin. J. Exp. Med. 155:1523.). Purified T-cells which were harvested in the 66-70% density band were considered to be small resting T-cells.
(§4) Small resting T-cells were purified from Balb/c mesenteric lymph nodes as described above. Purified cells were cultured for 3 days at a cell concentration of 10⁶ cells/ml either in media alone or in media plus different additions (rIL-2,100 U/ml; BSF-1, 2000 U/ml; bryostatin 1 or 2, 0.5 ng/ml). Cytotoxicity was measured in a 6 hour lectin mediated (Con A, 10 µg/ml) ⁵¹Cr-release assay. Results are shown for an E/T ratio of 100/l. For the determination of BLT-E content, 10⁶ cells of each of tested culture conditions were resuspended in 100 µl of media and solubilized with 1% Triton® X-100. Fifty l of cell suspension was used for measurement of BLT-esterase content as described above. Tested reagents when added alone to the cell cultures neither increased cellular BLT-esterase content nor induced cytotoxicity as shown in FIG. 7.

[6] = test system: M531 murine ovary sarcoma system; set-up: dose or concentration left out as unconfirmed; settings: cited from earlier work
[7] = test system: P388 in vitro cell line; settings: against the P388 in vitro cell line; cited from earlier work
[8] = test system: tumor promoters; assay: antagonism of tumor promoters
[9] = test system: small resting T-cells; assay: BLT-E content of small resting T-cells after 3-day culture; type: cell-based, BALB/c mice; settings: for expression of BLT-E activity in resting T-cells: added alone; for amount of BLT-E on a per cell basis: in combination with IL-4
Procedure: as §1, §3, §4

[10] = test system: CTL OE4 cells; assay: Ag-specific cytotoxicity of CTL OE4 against P815 cells (51Cr-release); type: cell-based, murine; settings: 10 ng/ml, P815 cells with CTL OE4 at various E/T ratios
Procedure: Effector cells and ⁵¹Cr-labeled target cells were mixed and incubated in triplicate in a 96-well plate at different E/T ratios as described in Grabstein, K. 1980. Cell-mediated cytolytic responses. In Selected Methods in Cellular Immunology, B. B. Mishel and S. M. Shiigi, eds. (San Francisco, Freeman), pp. 124. The target cell number was 10⁴ cells per well when ⁵¹Cr-release assay was performed with the cytolytic T-cell clones. 5x10³ target cells per well were used when spleen cells and lymph node T-cells were studied as effectors. PMA, bryostatin 1 and bryostatin 2 were added at a final concentration ranging from 0.5 ng/ml to 100 ng/ml. Lectin- dependent cytotoxicity assay was performed by adding 10 µg/ml Con A to the mixture of CTL and ⁵¹Cr-labeled target cells. After incubation, the 96-well plate was centrifuged (1 min, 800 rpm, 4|C), all supernatants were harvested, radioactivity in the samples was counted and the mean values for each triplicate were determined. Percent of specific ⁵¹Cr release was calculated as 100X (a-b)/(t-b), where a is ⁵¹Cr release in the presence of CTL, b is spontaneous release from labeled target cells in the absence of CTL and t is the total number of cpm in the target cells. […]
OE4 CXTL cells were incubated with 10⁴ Cr labeled P815-cells at different E/T ratios and a ⁵¹Cr-release was measured after 4 hours incubation. […]

[11] = test system: cytotoxic T-cell clone 2C; assay: Ag-nonspecific cytotoxicity of CTL clone 2C against EL-4 target cells (51Cr-release); type: cell-based, murine; settings: for lysis of EL-4 cells by CTL clone 2C: added to cell mixture, different E/T ratios
Procedure: as §2
No ⁵¹Cr-release was observed when ⁵¹Cr-labeled EL-4 cells ([…]) were mixed with the cytotoxic T-cell clone 2C (anti-H-2L^d) at different E/T ratios.
CTL 2C clone were incubated 4 hours with ⁵¹Cr-labeled syngeneic EL4 target cells at different E/T ratios in the presence of different concentrations of PMA or bryostatin 2.

[12] = 10 ng/ml in combination with Ca⁺⁺ ionophore A23187 0.5 µg/ml
[13] = bryostatin and BSF-1 added together

Compound	BLT-E secretion [1, 12]	BLT-E secretion ([1]; added alone, 10 ng/ml)	induction of differentiation of the HL-60 cell line [2]	development of CTL [3]	Index of Cell Recovery after incubation [3]	Lytic Units Per 10⁷ cells [3]	degree of cytotoxicity obtained with high concentrations of rIL-2 [3]	life extension [4]	induction of cytotoxicity in small resting T-cells compared to PMA [5]	CTL development in resting T-cells ([5]; added alone)	CTL development in resting T-cells [5, 13]	life extension [6]	ED₅₀ [7]	antagonism of tumor promoters [8]	expression of BLT-E activity in resting T-cells [9]	amount of BLT-E on a per cell basis [9]	Ag-specific ⁵¹Cr-release [10]	lysis of EL-4 cells by CTL clone 2C [11]	level of ⁵¹Cr-release ([11]; 10 ng/ml, compared to same concentration of PMA or bryostatin 1, all E/T ratios (data not shown))	concentration causing maximal activity (lysis of EL-4 cells) ([11]; plateau, 10-fold higher concentration gave no higher cytotoxicity)
CCCCCCCCCCCCCC(=O)O[C@@H]1[C@@H](C)[C@@]2(O)[C@@H](C=C(CO)C[C@]3(O)C(=O)C(C)=C[C@@H]23)[C@@H]2C(C)(C)[C@]12OC(C)=O [PMA, 4 β-phorbol-12-myristate 13-acetate, reference compound]	greatly enhanced	slight BLT-Esterase secretion	can be induced	equal in magnitude to that induced by 20 U/ml of IL-2	1.3	71 Lytic Units Per 10⁷ cells	enhanced	–	–	–	–	–	–	–	–	–	–	–	–	–
CCC/C=C/C=C/C(=O)O[C@H]1/C(=C/C(=O)OC)C[C@H]2C[C@H]([C@@H](C)O)OC(=O)C[C@H](O)C[C@@H]3C[C@H](OC(C)=O)C(C)(C)[C@](O)(C[C@@H]4C/C(=C/C(=O)OC)C[C@H](/C=C/C(C)(C)[C@]1(O)O2)O4)O3 [bryostatin 1]	slightly lower than that of PMA/Ca²⁺-ionophore	only a slight increase	–	–	0.9	40 Lytic Units Per 10⁷ cells	enhanced	52-96%	less effective than PMA	failed to induce CTL development	synergized	31-68%	0.89 µg/mL	antagonists of tumor promoters	Neither growth factors (IL-2, IL-4) nor bryostatin 1 and 2 alone induced expression	dramatically increased	slightly but consistently higher inhibition	caused the lysis of EL-4 cells in a dose dependent manner	–	–
bryostatin 2	always less effective	only a slight increase	–	equal in magnitude to that induced by 20 U/ml of IL-2	1.0	70 Lytic Units Per 10⁷ cells	enhanced	–	consistently induced similar amounts of cytotoxicity	failed to induce CTL development	synergized	–	–	antagonists of tumor promoters	Neither growth factors (IL-2, IL-4) nor bryostatin 1 and 2 alone induced expression	dramatically increased	decreased	caused the lysis of EL-4 cells in a dose dependent manner	consistently lower	10 ng/mL
